Results published in the NIST ThermoML archive (doi:10.1021/je700713q).
Numbers after ± are expanded uncertainties.

Conditions: Crystal; visual observation

- Normal melting temperature: 229.00 ± 1 °C
Structure (SMILES): CC1=CC(=O)[N-]S(=O)(=O)O1.[K+] [acesulfame potassium]
